Assays:
[1] = system: SW620 cells (KRAS G12V); assay: Cell-based pERK HTRF assay in SW620 cell (Biological Example 4); details: pERK HTRF
Method in brief: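 Read-out: HTRF pERK signal (excitation 320 nm, emission 615 nm) from lysates of SW620 cells after 4 h compound exposure. Dose range was 9 points, half-log steps from 1 μM, in 0.25% DMSO; antibody incubation ran 4–24 h at room temperature.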

[2] = target: T1, Avi-KRAS G12D (1-169) GppNHp/RAF1 RBD-3xFLAG (52-151) (Homo sapiens, UniProt P01116, G12D); assay: Raf1-KRAS G12D-GppNHP disruption HTRF assay (Biological Example 1); type: binding
T1 construct: Avi-KRAS G12D (1-169)
Method in brief: (§1)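 Percent activity versus DMSO (100%) was derived from HTRF signal after KRAS–RAF1 RBD protein mix was incubated 1 h at room temperature with shaking and detection reagents were added for a further 1 h.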

[3] = target: T2, Avi-KRAS G12R (1-169) GppNHp/RAF1 RBD-3xFLAG (52-151) (Homo sapiens, UniProt P01116, G12R); assay: Raf1-KRAS G12R-GppNHP disruption HTRF assay (Biological Example 1); type: binding
T2 construct: Avi-KRAS G12R (1-169)
Method in brief: as §1

[4] = target: T3, Avi-KRAS WT (1-169) GppNHp/RAF1 RBD-3xFLAG (52-151) (Homo sapiens, UniProt P01116); assay: Raf1-KRAS WT-GppNHP disruption HTRF assay (Biological Example 1); type: binding
T3 construct: Avi-KRAS WT (1-169)
Method in brief: as §1

[5] = system: GP2d cells (KRAS G12D); assay: Cell-based pERK HTRF assay in GP2d cell (Biological Example 2); details: GP2d (KRAS G12D) cells, pERK HTRF
Method in brief: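 Treatment with test compounds lasted one hour in DMEM containing 10% FBS, with DMSO held at 0.25%. Dilution series: 9 points, half-log spacing, highest 1 μM or 100 nM. Lysates were incubated 4–24 h at room temperature with antibody mix, then HTRF was read at 320 nm excitation.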

[6] = target: T4, Avi-KRAS G12V (1-169) GppNHp/RAF1 RBD-3xFLAG (52-151) (Homo sapiens, UniProt P01116, G12V); assay: Raf1-KRAS G12V-GppNHP disruption HTRF assay (Biological Example 1); type: binding
T4 construct: Avi-KRAS G12V (1-169)
Method in brief: as §1

[7] = Homo sapiens, SW-620, SW620 (KRAS G12V) cells
[8] = KRAS G12D, GppNHp-loaded, Table 11
[9] = KRAS G12R, GppNHp-loaded, Table 11
[10] = KRAS WT, GppNHp-loaded, Table 11
[11] = KRAS G12V, GppNHp-loaded, Table 11
[12] = Homo sapiens, SW-620, SW620 (KRAS G12V) cells, class symbols
[13] = KRAS G12D, GppNHp-loaded, class symbols
[14] = KRAS G12R, GppNHp-loaded, class symbols
[15] = KRAS WT, GppNHp-loaded, class symbols
[16] = KRAS G12V, GppNHp-loaded, class symbols

T1 sequence (P01116 1-169 isoform P01116-2 G12D): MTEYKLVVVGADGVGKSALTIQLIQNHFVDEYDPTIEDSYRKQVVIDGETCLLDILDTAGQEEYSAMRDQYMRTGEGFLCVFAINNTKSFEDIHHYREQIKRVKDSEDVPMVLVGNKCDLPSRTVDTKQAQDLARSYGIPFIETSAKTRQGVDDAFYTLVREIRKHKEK
T2 sequence (P01116 1-169 isoform P01116-2 G12R): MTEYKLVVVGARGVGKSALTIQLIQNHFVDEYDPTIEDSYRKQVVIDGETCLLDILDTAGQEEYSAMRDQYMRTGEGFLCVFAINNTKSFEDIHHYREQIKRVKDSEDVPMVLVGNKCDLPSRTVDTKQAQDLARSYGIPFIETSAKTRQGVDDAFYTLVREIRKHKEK
T3 sequence (P01116 1-169 isoform P01116-2): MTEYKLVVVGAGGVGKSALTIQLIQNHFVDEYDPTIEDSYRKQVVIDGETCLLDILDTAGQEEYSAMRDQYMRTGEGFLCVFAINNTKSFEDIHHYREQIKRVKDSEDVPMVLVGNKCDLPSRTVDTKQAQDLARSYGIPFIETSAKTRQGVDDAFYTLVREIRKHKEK
T4 sequence (P01116 1-169 isoform P01116-2 G12V): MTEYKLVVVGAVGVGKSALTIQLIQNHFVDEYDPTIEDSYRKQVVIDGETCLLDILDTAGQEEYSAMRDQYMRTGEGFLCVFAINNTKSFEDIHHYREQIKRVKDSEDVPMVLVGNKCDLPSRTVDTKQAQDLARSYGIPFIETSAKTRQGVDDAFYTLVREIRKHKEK

| Structure (SMILES) | IC50 [1, 7] [nM] | IC50 ([2]; KRAS G12D-GppNHp/RAF1 RBD HTRF) [nM] | IC50 ([3]; KRAS G12R-GppNHp/RAF1 RBD HTRF) [nM] | IC50 ([4]; KRAS WT-GppNHp/RAF1 RBD HTRF) [nM] | IC50 ([5]; GP2d) [nM] | IC50 ([6]; KRAS G12V-GppNHp/RAF1 RBD HTRF) [nM] | also measured |
| --- | --- | --- | --- | --- | --- | --- | --- |
| N#Cc1c(N)sc2c(F)ccc(-c3c(C(F)(F)F)cc4c(N5CCCS(=O)(=O)CC5)nc(OC[C@@]56CCCN5C[C@H](F)C6)nc4c3F)c12 [Compound 263] | < 100 |  |  |  | < 100 |  | IC50 [2, 8]: < 100 nM; IC50 [3, 9]: < 100 nM; IC50 [4, 10]: < 100 nM; IC50 [6, 11]: 100 to 1000 nM |
| CN(C)C(=O)N1CC[C@H](N(c2nc(OC[C@@]34CCCN3C[C@H](F)C4)nc3c(F)c(-c4ccc(F)c5sc(N)c(C#N)c45)c(C(F)(F)F)cc23)C2CC2)C1 (atropisomer, axis not shown) [Compound 743] |  |  |  |  |  |  | IC50 [1, 12]: < 100 nM; IC50 [2, 13]: 100 to 1000 nM; IC50 [3, 14]: 100 to 1000 nM; IC50 [4, 15]: 100 to 1000 nM; IC50 ([5]; GP2d, class symbols): < 100 nM; IC50 [6, 16]: 100 to 1000 nM |
| CCN(c1nc(OC[C@@]23CCCN2C[C@H](F)C3)nc2c(F)c(-c3ccc(F)c4sc(N)c(C#N)c34)c(C(F)(F)F)cc12)[C@H]1C[C@H](C)N(C(=O)c2ccon2)C1 (atropisomer, axis not shown) [Compound 766] |  |  |  |  |  |  | IC50 [1, 12]: < 100 nM; IC50 [2, 13]: < 100 nM; IC50 [3, 14]: < 100 nM; IC50 [4, 15]: < 100 nM; IC50 ([5]; GP2d, class symbols): < 100 nM; IC50 [6, 16]: < 100 nM |
| N#Cc1c(N)sc2c(F)ccc(-c3c(C(F)(F)F)cc4c(N5CCCC[C@H](O)C5)nc(OC[C@@]56CCCN5C[C@H](F)C6)nc4c3F)c12 [Compound 290] | < 100 | 100 to 1000 | 100 to 1000 | 100 to 1000 | < 100 | 100 to 1000 |  |
| N#Cc1c(N)sc2c(F)ccc(-c3c(C(F)(F)F)cc4c(N5CCS(=O)(=O)CC5)nc(OC[C@@]56CCCN5C[C@H](F)C6)nc4c3F)c12 [Compound 91] | < 100 |  |  |  | < 100 |  | IC50 [2, 8]: 100 to 1000 nM; IC50 [3, 9]: 100 to 1000 nM; IC50 [4, 10]: 100 to 1000 nM; IC50 [6, 11]: 100 to 1000 nM |
| CCC(=O)N1CC[C@@H](N(C)c2nc(OC[C@@]34CCCN3C[C@H](F)C4)nc3c(F)c(-c4ccc(F)c5sc(N)c(C#N)c45)c(Cl)cc23)[C@H]1C [Compound 399] | < 100 | 100 to 1000 | 100 to 1000 | 100 to 1000 | < 100 | 100 to 1000 |  |
| C[C@@H]1[C@H](N(C)c2nc(OC[C@@]34CCCN3C[C@H](F)C4)nc3c(F)c(-c4ccc(F)c5sc(N)c(C#N)c45)c(C(F)(F)F)cc23)CCN1C(=O)C1CC1 (atropisomer, axis not shown) [Compound 334] |  | > 10000 | > 10000 | > 10000 |  | > 10000 | IC50 ([1]; SW620 (KRAS G12V) cells): 100 to 1000 nM; IC50 [5]: 100 to 1000 nM |
| N#Cc1c(N)sc2c(F)ccc(-c3c(C(F)(F)F)cc4c(N5CC6CC(O)C(C6)C5)nc(OC[C@@]56CCCN5C[C@H](F)C6)nc4c3F)c12 (stereo partly drawn) [Compound 306] | 100 to 1000 | 1000 to 10000 | 1000 to 10000 | 1000 to 10000 | 100 to 1000 | > 10000 |  |

The next lines start with results.

| IC50 [1, 7] [nM] | IC50 ([2]; KRAS G12D-GppNHp/RAF1 RBD HTRF) [nM] | IC50 ([3]; KRAS G12R-GppNHp/RAF1 RBD HTRF) [nM] | IC50 ([4]; KRAS WT-GppNHp/RAF1 RBD HTRF) [nM] | IC50 ([5]; GP2d) [nM] | IC50 ([6]; KRAS G12V-GppNHp/RAF1 RBD HTRF) [nM] | Structure (SMILES) | also measured |
| --- | --- | --- | --- | --- | --- | --- | --- |
| 100 to 1000 | 100 to 1000 | 1000 to 10000 | 100 to 1000 | < 100 | 1000 to 10000 | C[C@@H]1[C@H](N(C)c2nc(OC[C@@]34CCCN3C[C@H](F)C4)nc3c(F)c(-c4ccc(F)c5sc(N)c(C#N)c45)c(Cl)cc23)CCN1C(=O)C(F)F [Compound 408] |  |
| < 100 | < 100 | < 100 | < 100 | < 100 | < 100 | CCN(c1nc(OC[C@@]23CCCN2C[C@H](F)C3)nc2c(F)c(-c3ccc(F)c4sc(N)c(C#N)c34)c(C(F)(F)F)cc12)[C@H]1CCN(C(=O)CC#N)C1 (atropisomer, axis not shown) [Compound 546] |  |

— patent US20260042764A1, “COMPOSITIONS AND METHODS FOR INHIBITION OF KRAS” (TheRas, Inc., priority 2022, published 2026)
